`O=C(O)c1ccc(C(=O)O)cc1` showed a solubility (mole fraction) (in 2-ethylhexanol, 313.15 K) of 0.000293, a solubility (mole fraction) (in 2-ethylhexanol, 318.15 K) of 0.000335 and a solubility (mole fraction) (in 2-ethylhexanol, 323.15 K) of 0.000377. The solubility (mole fraction) (in 2-ethylhexanol, 328.15 K) was 0.000429, the solubility (mole fraction) (in 2-ethylhexanol, 333.15 K) was 0.000482 and the solubility (mole fraction) (in 2-ethylhexanol, 338.15 K) was 0.000559. It also gave a solubility (mole fraction) (in 2-ethylhexanol, 343.15 K) of 0.000636, a solubility (mole fraction) (in 2-ethylhexanol, 348.15 K) of 0.000724 and a solubility (mole fraction) (in 2-ethylhexanol, 353.15 K) of 0.000812. It also gave a solubility (mole fraction) (in 2-ethylhexanol, 358.15 K) of 0.000915, a solubility (mole fraction) (in 2-ethylhexanol, 363.15 K) of 0.00102 and a solubility (mole fraction) (in DMAc, 313.15 K) of 0.0155. The solubility (mole fraction) (in DMAc, 318.15 K) was 0.0199, the solubility (mole fraction) (in DMAc, 323.15 K) was 0.0243 and the solubility (mole fraction) (in DMAc, 328.15 K) was 0.0304. The solubility (mole fraction) (in DMAc, 333.15 K) was 0.0365, the solubility (mole fraction) (in DMAc, 338.15 K) was 0.0453 and the solubility (mole fraction) (in DMAc, 343.15 K) was 0.0541. For the same compound, the solubility (mole fraction) (in DMAc, 348.15 K) was 0.065, the solubility (mole fraction) (in DMAc, 353.15 K) was 0.076 and the solubility (mole fraction) (in DMAc, 358.15 K) was 0.0823. It also gave a solubility (mole fraction) (in DMAc, 363.15 K) of 0.0886, a solubility (mole fraction) (in DMF, 313.15 K) of 0.0325 and a solubility (mole fraction) (in DMF, 318.15 K) of 0.0337. The solubility (mole fraction) (in DMF, 323.15 K) was 0.035, the solubility (mole fraction) (in DMF, 328.15 K) was 0.0361 and the solubility (mole fraction) (in DMF, 333.15 K) was 0.0372. It also gave a solubility (mole fraction) (in DMF, 338.15 K) of 0.0383, a solubility (mole fraction) (in DMF, 343.15 K) of 0.0394 and a solubility (mole fraction) (in DMF, 348.15 K) of 0.0412. The solubility (mole fraction) (in DMF, 353.15 K) was 0.0429, the solubility (mole fraction) (in DMF, 358.15 K) was 0.0442 and the solubility (mole fraction) (in DMF, 363.15 K) was 0.0455. It also gave a solubility (mole fraction) (in DMSO, 313.15 K) of 0.0964, a solubility (mole fraction) (in DMSO, 318.15 K) of 0.0989 and a solubility (mole fraction) (in DMSO, 323.15 K) of 0.102. For the same compound, the solubility (mole fraction) (in DMSO, 328.15 K) was 0.104, the solubility (mole fraction) (in DMSO, 333.15 K) was 0.107 and the solubility (mole fraction) (in DMSO, 338.15 K) was 0.108. It also gave a solubility (mole fraction) (in DMSO, 343.15 K) of 0.11, a solubility (mole fraction) (in DMSO, 348.15 K) of 0.113 and a solubility (mole fraction) (in DMSO, 353.15 K) of 0.116. It also gave a solubility (mole fraction) (in DMSO, 358.15 K) of 0.118, a solubility (mole fraction) (in DMSO, 363.15 K) of 0.121 and a solubility (mole fraction) (in NMP, 313.15 K) of 0.0558. It also gave a solubility (mole fraction) (in NMP, 318.15 K) of 0.0646, a solubility (mole fraction) (in NMP, 323.15 K) of 0.0736 and a solubility (mole fraction) (in NMP, 328.15 K) of 0.0838. For the same compound, the solubility (mole fraction) (in NMP, 333.15 K) was 0.094, the solubility (mole fraction) (in NMP, 338.15 K) was 0.0952 and the solubility (mole fraction) (in NMP, 343.15 K) was 0.0963. It also gave a solubility (mole fraction) (in NMP, 348.15 K) of 0.0974, a solubility (mole fraction) (in NMP, 353.15 K) of 0.0985 and a solubility (mole fraction) (in NMP, 358.15 K) of 0.0999. For the same compound, the solubility (mole fraction) (in NMP, 363.15 K) was 0.101, the solubility (mole fraction) (in pyridine, 313.15 K) was 0.0767 and the solubility (mole fraction) (in pyridine, 318.15 K) was 0.0767. For the same compound, the solubility (mole fraction) (in pyridine, 323.15 K) was 0.0766, the solubility (mole fraction) (in pyridine, 328.15 K) was 0.0768 and the solubility (mole fraction) (in pyridine, 333.15 K) was 0.0769. The solubility (mole fraction) (in pyridine, 338.15 K) was 0.077, the solubility (mole fraction) (in pyridine, 343.15 K) was 0.077 and the solubility (mole fraction) (in pyridine, 348.15 K) was 0.0774. For the same compound, the solubility (mole fraction) (in pyridine, 353.15 K) was 0.0778, the solubility (mole fraction) (in pyridine, 358.15 K) was 0.0783 and the solubility (mole fraction) (in pyridine, 363.15 K) was 0.0787.
